Measured values reported in PMC8248988, “A signal capture and proofreading mechanism for the KDEL-receptor explains selectivity and dynamic range in ER retrieval” (eLife, 2021).

Tested on: HeLa S3 cells
Experiment: ER secretion assay, xDEL ligand secretion (Western blot for mScarlet)
Format: cell-based, human
Text: Figure 1. ER retrieval signal abundance and affinity are not correlated. (a) Sequence logos for ER resident proteins with C-terminal KDEL retrieval signals and variants thereof calculated using frequency or protein abundance ([Itzhak et al., 2017]; [Itzhak et al., 2016]). (b) Combined cellular concentrations of ER resident proteins with canonical KDEL, RDEL, and HDEL retrieval sequences in HeLa cells and mouse brain. (c) Competition binding assays for [^3H]-TAEHDEL and unlabelled TAEKDEL, TAERDEL, and TAEHDEL to the KDEL receptor. IC50 values for the competing peptides were used to calculate the apparent KDwith the Cheng-Prusoff equation ([Cheng and Prusoff, 1973]). (d) Endogenous KDEL receptor redistribution was measured in COS-7 cells in the absence (-ligand) or presence of K/R/H/A/DDEL (mScarlet-xDEL^sec). TGN46 was used as a Golgi marker. Scale bar is 10 µm. (e) The mean difference for K/R/H/A/DDEL comparisons against the shared no ligand control are shown as Cummings estimation plots. The individual data points for the fraction of KDEL receptor fluorescence in the Golgi are plotted on the upper axes with sample sizes and p values. Figure 1—source data 1. Source data for the ligand-induced KDELR receptor retrieval assays in Figure 1e. Figure 1—figure supplement 1. Abundance of ER resident proteins and chaperones in human cells and mouse brain. (a) The mean concentration of ER resident chaperones with the indicated ER retrieval sequence variant is plotted in the bar graph ([Itzhak et al., 2017]; [Itzhak et al., 2016]). (b) Combined cellular concentrations of ER resident proteins with canonical KDEL, RDEL, and HDEL retrieval sequences in HeLa cells and mouse brain. (c) The mean concentration of KDELR1, KDELR2, and KDELR3 in HeLa cells and mouse brain is plotted in the bar graph ([Itzhak et al., 2017]; [Itzhak et al., 2016]). (d) Cells and media collected from HeLa S3 cells expressing the xDEL variants (mScarlet-xDEL^sec) indicated in the figure were Western blotted for resident ER chaperones and KDELR. (e) A bar graph of xDEL secretion showing mean ± SEM (n = 3). (f). Endogenous ER chaperone secretion was measured by western blotting after challenge with different retrieval signals, and plotted as a bar graph showing mean ± SEM (n = 3). Figure 1—figure supplement 1—source data 1. Source data for analysis of ER protein levels in Figure 1—figure supplement 1a and c. Figure 1—figure supplement 1—source data 2. […] (a) Distribution of human KDELR1 and (b) KDELR2 was measured in COS-7 cells in the absence (-ligand) or presence of K/R/H/A/DDEL retrieval signals (K/R/H/A/DDEL^sec). […] The fraction of KDEL receptor localised to the Golgi was measured before (no ligand) and after challenge with different retrieval signals as indicated. […]

ADEL [pcDNA3.1 hGHss-mScarlet-H. sapiens BiP639-654K651A (ADEL^SEC), secreted mScarlet fusion with human BiP C-terminus, ADEL signal]
retention or secretion of the xDEL ligand (in words) (HeLa S3 cells): mostly secreted
xDEL secretion (mScarlet) (mean, HeLa S3, 24 hr, cells and media Western blot densitometry): 51.6
xDEL secretion (mScarlet) (replicate 1): 33.9
xDEL secretion (mScarlet) (replicate 2): 69.2
